Measurements reported in patent US20240336615A1, “CYCLOPROPYL-(HETERO)ARYL-SUBSTITUTED ETHYL-SULFOXIME-PYRIDINE DERIVATIVES” (Boehringer Ingelheim Vetmedica GmbH, priority 2023, published 2024).

What was measured:
[1] = tested on: adult C. felis fleas; experiment: Ingestion activity against adult Ctenocephalides felis, membrane feeding, alternative method (Examples 7 and 13); details: Ctenocephalides felis
Protocol: Selected compounds of formula (I), (Ia) and (Ib) and compound “125” of WO 2021/033141 dissolved in 100% DMSO are diluted in bovine blood with sodium heparin anti-coagulant. The resulting formulation is offered via an artificial membrane feeding system to approximately 15 adult C. felis fleas previously dispensed into 24-well plates. The plates are then incubated in a double-chambered device. Visual evaluation for mortality is performed at 48 hours post-treatment. Compound efficacy at a given dose is expressed as percentage mortality and determined by normalization to positive and negative controls. A dose response series is implemented to determine EC50 values.
Compounds of formulae (I), (Ia) and/or (Ib) dissolved in 100% DMSO are diluted in bovine blood with sodium heparin anti-coagulant. The resulting formulation is offered via an artificial membrane feeding system to approximately 15 adult C. felis fleas previously dispensed into 24-well plates. The plates are then incubated in a double-chambered device. Visual evaluation for mortality is performed at 48 hours post-treatment. Compound efficacy at a given dose is expressed as percentage mortality and determined by normalization to positive and negative controls. A dose response series is implemented to determine EC50 values.

[2] = tested on: adult Ctenocephalides felis fleas; experiment: Contact activity against adult Ctenocephalides felis (Example 4); details: adult C. felis, coated pipe cleaner in vial, 72 hours post-treatment, read-out: EC50 (contact activity, percentage mortality)
Protocol: Compounds of formulae (I), (Ia) and/or (Ib) dissolved in 100% DMSO are diluted in acetone to a desired concentration. The resulting formulation is used to coat the fibers of a 0.5-inch-long piece of pipe cleaner placed in a glass scintillation vial. The vial is capped with a rubber gasket and filter paper insert. After the acetone has evaporated, ten adult Ctenocephalides felis fleas are added to each vial. The vials are then incubated at 22° C., 80% relative humidity, and 12 hours of light/12 hours of dark until a visual evaluation for mortality is performed at 72 hours post-treatment. Compound efficacy at a given dose is expressed as percentage mortality and adjusted to remove background mortality observed in control vials containing DMSO only. A dose response series of treated vials is implemented to determine EC50 values.

[3] = tested on: Myzus persicae; experiment: Insecticidal test on Myzus persicae (Example 17); format: in vivo; details: 144 h, 500 ppm, foliar application on Chinese cabbage, 6 days after application, read-out: control efficacy level (control rate)
From the text: The compounds of formula (I), (Ia) and/or (Ib) of the present invention or salts thereof are separately dispersed in water and diluted to 500 ppm and 50 ppm. Chinese cabbage plants are planted in plastic pots (diameter: 8 cm, height: 8 cm). Aphids (Myzus persicae) are propagated on the plants and then the number of surviving aphids is counted. The dispersion is applied to the foliage of the potted plants. After the plants are air dried, these are kept in a greenhouse. 6 days after the application, the number of the alive insects is counted on the plants. The control rate is calculated according to the following formula and the control efficacy is evaluated according to the following criteria. [formula] • Ta: the number of alive insects before the foliar application in a treated plot • T: the number of alive insects after the foliar application in a treated plot • Ca: the number of alive insects before the foliar application in an untreated plot • C: the number of alive insects after the foliar application in an untreated plot • A: the control rate is 100% • B: the control rate is 90 to 99% • C: the control rate is 80 to 89% • D: the control rate is 50 to 79%

[4] = tested on: adult R. sanguineus ticks; experiment: Contact activity against adult Rhipicephalus sanguineus (Example 5); details: coated vials, 48 hours post-treatment, read-out: EC50 (contact activity, percentage mortality)
Protocol: Compounds of formulae (I), (Ia) and/or (Ib) formulated in 100% DMSO are diluted in a solution containing acetone and Triton X-100 (0.02%). The resulting formulation is used to coat the inner walls of glass scintillation vials and the filter paper covering the cap of the vial. Once dried, ten adult R. sanguineus ticks are added to the vials. The vials are incubated at 24° C., 95% relative humidity, and 12 hours of light/12 hours of dark until evaluation. Ticks are visually evaluated for mortality at 48 hours post-treatment. Compound efficacy at a given dose is expressed as percentage mortality. A dose response series is implemented to determine EC50 values.

[5] = tested on: adult C. felis fleas; experiment: Ingestion activity against adult Ctenocephalides felis, membrane feeding, motility (Example 6); details: 48 h, bovine blood via artificial membrane, 48h post treatment, read-out: EC50 (ingestion activity, % motility reduction)
Protocol: Compounds of formulae (I), (Ia) and/or (Ib) dissolved in 100% DMSO are added to bovine blood and offered via an artificial membrane feeding system to adult C. felis fleas. The motility of fleas is then visually inspected 48h post treatment. Efficacy is expressed in % motility reduction compared to controls containing blood treated with DMSO only. A dose response series is implemented to determine EC50 values.

[6] = tested on: Spodoptera litura; experiment: Insecticidal test on Spodoptera litura (Example 14); format: in vivo; details: foliar, 192 h, 500 ppm, cabbage leaf dip, 2nd-instar larvae, 8 days after inoculation, read-out: activity level (corrected mortality rate)
Protocol: The compounds of formula (I), (Ia) and/or (Ib) of the present invention or salts thereof are separately dispersed in water and diluted to 500 ppm and 50 ppm. Cabbage leaves are dipped in the dispersion for about 30 seconds. After air dried, the leaves are placed in a plastic Petri dish with a diameter of 9 cm and inoculated with ten 2nd-instar larvae of Spodoptera litura, after which the dish is closed and then allowed to stand in a room at 25° C. 8 days after the inoculation, the numbers of the dead and alive insects are counted. The corrected mortality rate is calculated according to the following formula and the insecticidal activity is evaluated according to the following criteria.
[formula] [formula] • A: the corrected mortality rate is 100% • B: the corrected mortality rate is 90 to 99% • C: the corrected mortality rate is 80 to 89% • D: the corrected mortality rate is 50 to 79%

[7] = tested on: Laodelphax striatellus; experiment: Insecticidal test on Laodelphax striatellus (Example 16); format: in vivo; details: 192 h, 500 ppm, rice seedling dip, 3rd-instar nymphs, 8 days after inoculation, read-out: activity level (corrected mortality rate)
Protocol: The compounds of formula (I), (Ia) and/or (Ib) of the present invention or salts thereof are separately dispersed in water and diluted to 500 ppm and 50 ppm. Rice plant seedlings are dipped in the dispersion for about 30 seconds. After air dried, the seedlings are put into a separate glass test tube and inoculated with ten 3rd-instar nymphs of Laodelphax striatellus and then the glass test tube is kept in a room at 25° C. 8 days after the inoculation, the numbers of the dead and alive insects are counted. The corrected mortality rate is calculated according to the following formula and the insecticidal activity is evaluated according to the following criteria.

[8] = tested on: Plutella xylostella; experiment: Insecticidal test on Plutella xylostella (Example 15); format: in vivo; details: 144 h, 500 ppm, Chinese cabbage seedling dip, 6 days after dip treatment, read-out: activity level (corrected mortality rate)
Protocol: The compounds of formula (I), (Ia) and/or (Ib) of the present invention or salts thereof are separately dispersed in water and diluted to 500 ppm and 50 ppm. Ten adults of Plutella xylostella are released onto Chinese cabbage seedlings and allowed to lay eggs thereon. 2 days after the release of the adults, the seedling is dipped in the dispersion for about 30 seconds. After air dried, the seedling is kept in a room at 25° C. 6 days after the dip treatment, the numbers of the dead and alive insects are counted. The corrected mortality rate is calculated according to the following formula and the insecticidal activity is evaluated according to the following criteria.

[9] = tested on: A. aegypti L1 larvae; experiment: Activity against larvae of Aedes aegypti (Example 3); details: 48 h at 27° C., read-out: EC50 (percentage of mortality, larvae)
Protocol: Eight A. aegypti L1 larvae in a total volume of 64 μL water are added to 384-well microplates containing compounds of formulae (I), (Ia) and/or (Ib) formulated in 100% DMSO. The plates are incubated for 48 h at 27° C. Individual well images are acquired and analyzed using a pipeline to quantitatively assess the amount of larvae biomass accumulating at the bottom of the well. The efficacy of a compound at a given dose is expressed as “percentage of mortality” and determined by comparison to average biomass descriptors of positive and negative control wells containing 1.0 μM Fipronil or DMSO only, respectively. Dose response assay are conducted to determine an EC50 value.

[10] = adult C. felis, bovine blood with sodium heparin, membrane feeding, 48 hours post-treatment, read-out: EC50 (ingestion activity, percentage mortality, alternative method)
[11] = alternative method according to Example 7, mortality at 48 hours post-treatment, read-out: C. felis membrane feeding (ingestion/blood feeding) activity EC50

**Q.** Which results are given for `CCS(=N)(=O)c1cc(-c2ccc(C3CC3)cc2)cnc1-c1nc2cc(C(F)(F)C(F)(F)F)cnc2n1C` (centres unmarked) [Compound 11]?
**A.** EC50 [1, 10]: < 1000 nM; EC50 [1, 11]: 816 nM; EC50 [2]: < 10 µM; pest or weed control at 500 ppm [3]: 100%; EC50 [4]: 10 to 100 µM; EC50 [5]: < 1000 nM; mortality at 500 ppm [6]: 100%; mortality at 500 ppm [7]: 100%; mortality at 500 ppm [8]: 100%; EC50 [9]: < 40 nM

**Q.** Which results are given for `CCS(=N)(=O)c1cc(-c2ccc(C3(F)CC3)cc2)cnc1-c1nc2cc(C(F)(F)C(F)(F)F)nnc2n1C` (centres unmarked) [Compound 14]?
**A.** EC50 [1, 10]: < 1000 nM; EC50 [1, 11]: 195 nM; EC50 [2]: < 10 µM; pest or weed control at 500 ppm [3]: 100%; EC50 [4]: 10 to 100 µM; EC50 [5]: < 1000 nM; mortality at 500 ppm [6]: 100%; mortality at 500 ppm [7]: 100%; mortality at 500 ppm [8]: 100%; EC50 [9]: < 40 nM
